According to patent publication US20240374552A1, “Compositions and Methods for Preventing or Reducing the Risk of Metabolic Syndrome” (priority 2021, published 2024):

Tested on: High-Fat Diet (HFD) induced obesity model
Assay: Effectiveness on metabolic syndrome risk factors, high-fat diet-induced obesity model
Conditions: for Body mass index / Cholesterol (%) / Fat free mass / Fat mass / Food consumption (%) / Glucose (%) / Triglycerides (%) / Weight loss (%): reduction, negative = increase
[1] = ED4: HFD, 0.001 mg/Kg daily 2 weeks
[2] = ED5: Normal diet, 0.001 mg/Kg daily 2 weeks
[3] = ED6: HFD, 0.0175 mg/Kg daily 2 weeks
[4] = ED7: Normal diet, 0.0175 mg/Kg daily 2 weeks
[5] = ED8: HFD, 0.175 mg/Kg daily 2 weeks
[6] = ED9: Normal diet, 0.175 mg/Kg daily 2 weeks
[7] = ED10: HFD, 0.18 mg/Kg daily 2 weeks
[8] = ED11: Normal diet, 0.18 mg/Kg daily 2 weeks
[9] = ED12: HFD, 0.1999 mg/Kg daily 2 weeks
[10] = ED13: Normal diet, 0.1999 mg/Kg daily 2 weeks
[11] = EH4: HFD, 0.20 mg/Kg daily 2 weeks, purity min 95%
[12] = EH5: Normal diet, 0.20 mg/Kg daily 2 weeks, purity min 95%
[13] = EH6: HFD, 0.76 mg/Kg daily 2 weeks, purity min 95%
[14] = EH7: Normal diet, 0.76 mg/Kg daily 2 weeks, purity min 95%
[15] = EH8: HFD, 1.75 mg/Kg daily 2 weeks, purity min 95%
[16] = EH9: Normal diet, 1.75 mg/Kg daily 2 weeks, purity min 95%
[17] = EH10: HFD, 5.50 mg/Kg daily 2 weeks, purity min 95%
[18] = EH11: Normal diet, 5.50 mg/Kg daily 2 weeks, purity min 95%
[19] = EH12: HFD, 25.00 mg/Kg daily 2 weeks, purity min 95%
[20] = EH13: Normal diet, 25.00 mg/Kg daily 2 weeks, purity min 95%
[21] = EH14: HFD, 55.50 mg/Kg daily 2 weeks, purity min 95%
[22] = EH15: Normal diet, 55.50 mg/Kg daily 2 weeks, purity min 95%
[23] = doses 0.001 mg/Kg to about 0.1999 mg/Kg
[24] = doses 0.20 mg/Kg to about 1.75 mg/Kg

From the text: Animal studies in high-fat diet-induced obesity model in a total 75 male C57BL/6/CIEABR mice 6 to 7 weeks of age.
The test system is based on the High-Fat Diet (HFD) induced obesity model.
During the quarantine period (10 days), all animals were given rodent food “PicoLab Mouse Diet 5058” food, later, they were given high fat food “Tso's High Fat Diet With Butter Fat” or “PicoLab Mouse Diet 5058” food, according to the assignment of the type of diet and treatment that each animal should consume (See table 3 and table 4).
At the end of the induction period, the administration of the different treatments began. The test product, vehicle, and controls were administered daily for two weeks. Administration was orally using curved stainless steel gastric tubes (18 G×1.5) previously sanitized; administration was performed at 11:00±1 h.
For each treatment, different parameters were quantified to determine their decrease regarding the treatment applied to each group: weight loss (%), feed consumption (%), fat free mass (g), fat mass (g), body mass index, glucose (%), cholesterol (%) and triglycerides (%).

In the case of `CC(C)(C)c1cc(C=C(C#N)C#N)cc(C(C)(C)C)c1O` [tyrphostin AG17, Tyrphostin AG17], the Body mass index [1] is reported as 1.04, the “Cholesterol (%)” value [1] is reported as −0.03% and the “Fat free mass” value [1] is reported as -2.69 g. The “Fat mass” value [1] was -0.54 g, the “Food consumption (%)” value [1] was −4.21% and the “Glucose (%)” value [1] was 0.75%. For the same compound, the “Triglycerides (%)” value [1] was 4.35%, the “Weight loss (%)” value [1] was 3.17% and the Body mass index [2] was 1.69. For the same compound, the “Cholesterol (%)” value [2] was 0.10%, the “Fat free mass” value [2] was -4.02 g and the “Fat mass” value [2] was 1.28 g. For the same compound, the “Food consumption (%)” value [2] was 1.05%, the “Glucose (%)” value [2] was 1.33% and the “Triglycerides (%)” value [2] was 7.83%. The “Weight loss (%)” value [2] was 4.01%, the Body mass index [3] was 2.03 and the “Cholesterol (%)” value [3] was 0.04%. For the same compound, the “Fat free mass” value [3] was 1.22 g, the “Fat mass” value [3] was -0.31 g and the “Food consumption (%)” value [3] was 13.04%. For the same compound, the “Glucose (%)” value [3] was 0.92%, the “Triglycerides (%)” value [3] was 17.39% and the “Weight loss (%)” value [3] was 6.19%. The Body mass index [4] was 2.73, the “Cholesterol (%)” value [4] was 0.44% and the “Fat free mass” value [4] was 3.21 g. For the same compound, the “Fat mass” value [4] was 2.59 g, the “Food consumption (%)” value [4] was 17.39% and the “Glucose (%)” value [4] was 1.24%. The “Triglycerides (%)” value [4] was 20.00%, the “Weight loss (%)” value [4] was 8.40% and the Body mass index [5] was 4.41. The “Cholesterol (%)” value [5] was 0.65%, the “Fat free mass” value [5] was 2.34 g and the “Fat mass” value [5] was 1.28 g. For the same compound, the “Food consumption (%)” value [5] was 25.00%, the “Glucose (%)” value [5] was 1.36% and the “Triglycerides (%)” value [5] was 24.35%. For the same compound, the “Weight loss (%)” value [5] was 17.16%, the Body mass index [6] was 4.30 and the “Cholesterol (%)” value [6] was 1.30%. For the same compound, the “Fat free mass” value [6] was 3.98 g, the “Fat mass” value [6] was 3.56 g and the “Food consumption (%)” value [6] was 20.83%. The “Glucose (%)” value [6] was 1.93%, the “Triglycerides (%)” value [6] was 25.22% and the “Weight loss (%)” value [6] was 22.13%. For the same compound, the Body mass index [7] was 3.30, the “Cholesterol (%)” value [7] was 1.10% and the “Fat free mass” value [7] was 3.32 g. The “Fat mass” value [7] was -0.10 g, the “Food consumption (%)” value [7] was 21.74% and the “Glucose (%)” value [7] was 1.49%. The “Triglycerides (%)” value [7] was 32.17%, the “Weight loss (%)” value [7] was 16.56% and the Body mass index [8] was 4.22. For the same compound, the “Cholesterol (%)” value [8] was 1.27%, the “Fat free mass” value [8] was 5.11 g and the “Fat mass” value [8] was 4.92 g. The “Food consumption (%)” value [8] was 22.92%, the “Glucose (%)” value [8] was 2.31% and the “Triglycerides (%)” value [8] was 29.57%. For the same compound, the “Weight loss (%)” value [8] was 20.88%, the Body mass index [9] was 3.35 and the “Cholesterol (%)” value [9] was 0.94%. For the same compound, the “Fat free mass” value [9] was 3.41 g, the “Fat mass” value [9] was 0.36 g and the “Food consumption (%)” value [9] was 22.27%. For the same compound, the “Glucose (%)” value [9] was 1.40%, the “Triglycerides (%)” value [9] was 30.54% and the “Weight loss (%)” value [9] was 16.24%. The Body mass index [10] was 3.91, the “Cholesterol (%)” value [10] was 2.44% and the “Fat free mass” value [10] was 5.39 g. The “Fat mass” value [10] was 6.02 g, the “Food consumption (%)” value [10] was 23.11% and the “Glucose (%)” value [10] was 2.11%. The “Triglycerides (%)” value [10] was 30.43%, the “Weight loss (%)” value [10] was 18.21% and the Body mass index [11] was 3.34. The “Cholesterol (%)” value [11] was 1.13%, the “Fat free mass” value [11] was 3.44 g and the “Fat mass” value [11] was 0.39 g. The “Food consumption (%)” value [11] was 18.18%, the “Glucose (%)” value [11] was 1.43% and the “Triglycerides (%)” value [11] was 31.02%. For the same compound, the “Weight loss (%)” value [11] was 20.88%, the Body mass index [12] was 4.05 and the “Cholesterol (%)” value [12] was 2.48%. For the same compound, the “Fat free mass” value [12] was 4.92 g, the “Fat mass” value [12] was 5.99 g and the “Food consumption (%)” value [12] was 22.07%. The “Glucose (%)” value [12] was 2.15%, the “Triglycerides (%)” value [12] was 30.75% and the “Weight loss (%)” value [12] was 20.97%. The Body mass index [13] was 2.23, the “Cholesterol (%)” value [13] was 1.49% and the “Fat free mass” value [13] was 2.39 g. For the same compound, the “Fat mass” value [13] was 1.21 g, the “Food consumption (%)” value [13] was 23.81% and the “Glucose (%)” value [13] was 2.05%. The “Triglycerides (%)” value [13] was 33.12%, the “Weight loss (%)” value [13] was 14.92% and the Body mass index [14] was 3.43. The “Cholesterol (%)” value [14] was 3.38%, the “Fat free mass” value [14] was 3.94 g and the “Fat mass” value [14] was 7.52 g. The “Food consumption (%)” value [14] was 30.10%, the “Glucose (%)” value [14] was 2.04% and the “Triglycerides (%)” value [14] was 31.74%. For the same compound, the “Weight loss (%)” value [14] was 17.21%, the Body mass index [15] was 2.50 and the “Cholesterol (%)” value [15] was 2.02%. The “Fat free mass” value [15] was -0.12 g, the “Fat mass” value [15] was 1.05 g and the “Food consumption (%)” value [15] was 33.11%. For the same compound, the “Glucose (%)” value [15] was 2.19%, the “Triglycerides (%)” value [15] was 33.45% and the “Weight loss (%)” value [15] was 18.14%. The Body mass index [16] was 3.40, the “Cholesterol (%)” value [16] was 3.43% and the “Fat free mass” value [16] was 1.04 g. For the same compound, the “Fat mass” value [16] was 6.98 g, the “Food consumption (%)” value [16] was 35.18% and the “Glucose (%)” value [16] was 2.43%. For the same compound, the “Triglycerides (%)” value [16] was 32.42%, the “Weight loss (%)” value [16] was 13.88% and the Body mass index [17] was 3.30. For the same compound, the “Cholesterol (%)” value [17] was 2.36%, the “Fat free mass” value [17] was -0.04 g and the “Fat mass” value [17] was 1.28 g. The “Food consumption (%)” value [17] was 38.09%, the “Glucose (%)” value [17] was 3.11% and the “Triglycerides (%)” value [17] was 34.17%. The “Weight loss (%)” value [17] was 7.83%, the Body mass index [18] was 4.22 and the “Cholesterol (%)” value [18] was 3.44%. The “Fat free mass” value [18] was 0.42 g, the “Fat mass” value [18] was 5.41 g and the “Food consumption (%)” value [18] was 47.82%. The “Glucose (%)” value [18] was 2.03%, the “Triglycerides (%)” value [18] was 32.56% and the “Weight loss (%)” value [18] was 8.87%. The Body mass index [19] was 3.35, the “Cholesterol (%)” value [19] was 2.49% and the “Fat free mass” value [19] was -0.13 g. The “Fat mass” value [19] was 1.20 g, the “Food consumption (%)” value [19] was 37.27% and the “Glucose (%)” value [19] was 4.20%. For the same compound, the “Triglycerides (%)” value [19] was 37.21%, the “Weight loss (%)” value [19] was 9.27% and the Body mass index [20] was 3.91. The “Cholesterol (%)” value [20] was 3.45%, the “Fat free mass” value [20] was -0.10 g and the “Fat mass” value [20] was 5.58 g. The “Food consumption (%)” value [20] was 40.91%, the “Glucose (%)” value [20] was 2.10% and the “Triglycerides (%)” value [20] was 32.45%. The “Weight loss (%)” value [20] was 7.30%, the Body mass index [21] was 2.54 and the “Cholesterol (%)” value [21] was 2.33%. For the same compound, the “Fat free mass” value [21] was -0.12 g, the “Fat mass” value [21] was 1.06 g and the “Food consumption (%)” value [21] was 33.12%. For the same compound, the “Glucose (%)” value [21] was 4.38%, the “Triglycerides (%)” value [21] was 37.84% and the “Weight loss (%)” value [21] was 3.49%. The Body mass index [22] was 2.99, the “Cholesterol (%)” value [22] was 3.58% and the “Fat free mass” value [22] was -0.09 g. For the same compound, the “Fat mass” value [22] was 5.01 g, the “Food consumption (%)” value [22] was 41.37% and the “Glucose (%)” value [22] was 1.91%. For the same compound, the “Triglycerides (%)” value [22] was 33.32%, the “Weight loss (%)” value [22] was 4.44% and the Concentration of triglycerides [23] was “considerable decrease”. The “Levels of HDL and glucose” value [23] was “maintaining the levels of HDL and glucose”, the “Liver damage or toxic effects” value [23] was “low presence of liver damage or toxic effects” and the Weight [23] was “considerable decrease”. For the same compound, the Concentration of triglycerides [24] was “decrease”, the Glucose levels [24] was “maintained” and the HDL levels [24] was “reduced”. For the same compound, the Weight [24] was “decrease” and the “Effect on the liver and toxic effects” value (doses 0.20 mg/Kg to about 1.75 mg/Kg, high purity tyrphostin) was “reduced the effect on the hepatic liver as well as the toxic effects”.
